Holding throughout (type): cell-based
The subject of one series is HIV-1Ba-L. Kind of series: HIV-1 infection of monocyte-derived macrophages, p24-core antigen ELISA. To be noted: Human immunodeficiency virus 1, Macrophage, MDM infected with HIV-1Ba-L, multiplicity of infection 0.02. As to the method:
Cells are washed twice and monocytes are purified by countercurrent centrifugal elutriation. Cells are >98% monocytes by criteria of cell morphology on May-Grunwald-Giemsa-stained cytosmears and by nonspecific esterase staining using alpha-naphtylacetate (Sigma Chemical Co., St. Louis, MO) as substrate.
(§1) HIV-1 strain Ba-L is grown to high titer in MDM. The 50% tissue culture infectious dose (TCID50) of the virus stock is determined by endpoint dilution with serial fourfold dilutions in a 96-well microtiter plate on MDM. HIV-1 strain AT is grown to high titer in PHA-stimulated PBMC. The TCID50 of the virus stock is determined by endpoint dilution with serial fourfold dilutions in a 96-well microtiter plate on PBMC.
PBMC were washed twice and monocytes were purified by countercurrent centrifugal elutriation. […] Concentrations above 0.3 µM APHS inhibit p24 production. 30 µM APHS inhibits HIV-1 replication by 88%.
A general note: In an ELISA, binding on a coated surface is turned into a signal by an enzyme label.

A further series relates to HIV-1. Kind of series: HIV-1 infection of PHA-stimulated PBMC, p24-core antigen ELISA (strain not specified in the result). To be noted: Human immunodeficiency virus 1; PHA-stimulated PBMC infected with HIV-1AT or HIV-1BaL; p24 after 4 and 5 days; read-out: Concentrations that inhibit HIV-1 production. The protocol:
as §1

A further series concerns HIV-1BaL. Briefly: HIV-1BaL infection of PHA-stimulated PBMC, p24-core antigen ELISA. As to the method:
as §1

The subject of series [1] is Monocyte-derived macrophages (MDM). Briefly: MTT cytotoxicity assay in monocyte-derived macrophages. To be noted: 4 days incubation in different concentrations. The protocol: Cell viability is assessed by the MTT assay. In short, cells are incubated with MTT 3-(4,5-dimethylthiazol-2-yl)-2,5-diphenyltetrazollumbromide (Sigma) for 2 hours at 37 °C. During this time viable cells convert MTT into […] formazan dyes. Afterwards crystals are solubilised with a solution containing isopropanol. The OD of the supernatant is measured at 550 nm.
Fig 3 - Monocyte-derived macrophages (MDM) were obtained like described in legend of Fig.2. […] After a 4 days incubation period cellular viability was assessed by MTT cytotoxicity assay where viable cells convert MTT into a colored formazan dye that can be measured spectrophotometrically.
(Tetrazolium assays rely on reduction of a dye to a coloured formazan, in cell work by metabolically active cells.)

In another series the test system is PBMC. Briefly: WST-1 cytotoxicity assay in PBMC. To be noted: 5 days incubation. As to the method:
Cell viability is assessed with WST-1 assay. Cells are incubated with the tetrazolium salt WST-1 (4-[3-(4-lodophenyl)-2-(4-nitrophenyl)-2H-5-tetrazolio]-1,3-benzene disulfonate) for 2 hours at 37 °C. During this time viable cells convert WST-1 into water soluble formazan dyes. The OD of the supernatant is measured at 550 nm.
Fig 5 - PBMC were obtained and stimulated as described in legend of Fig. 4. […] After a 5 days incubation period cellular viability was assessed by WST-1 cytotoxicity assay where viable cells convert WST-1 into a coloured formazan dye that can be measured spectrophotometrically.

Each structure is given as a SMILES string. Some results are limits rather than exact numbers.

Regarding `CCCCC#CCSc1ccccc1OC(C)=O` [APHS, o-(acetoxy-phenyl)hept-2-ynyl sulphide], the inhibition at 30 µM came out at 88% with HIV-1Ba-L (30 µM APHS, read-out: inhibits HIV-1 replication by) and 100% in the series on HIV-1BaL (Human immunodeficiency virus 1, 30 µM APHS, read-out: inhibit HIV-1BaL replication by). Further, the minimal effective concentration is more than 0.3 µM with HIV-1Ba-L (supernatant after 4 and 5 days, read-out: Concentrations that inhibit p24 production); more than 1 µM in the series with HIV-1. Further, in the series with HIV-1BaL (Human immunodeficiency virus 1, 1 µM APHS, when infectivity is lower (Fig 4c), read-out: inhibit HIV-1BaL production by), the inhibition at 1 µM came to 50%. In series [1], the “cytotoxicity (cellular viability, MTT)” value is listed as “None of the tested concentrations of APHS was found to be cytotoxic”. For the same molecule, the “Concentrations found to reduce viability” value in the series with PBMC is recorded as not below 100 µM.

(Values after patent EP1064940A1, “Antiviral therapy” (Universitair Medisch Centrum Utrecht, priority 1999, dated 2001).)
